ChEMBL document CHEMBL1156050, “Synthesis and evaluation of 9-aminoacridines derived from benzyne click chemistry” (Bioorg Med Chem Lett, 2009)

Columns and labels:
HL-60 = experiment: Cytotoxicity against human HL60 cells; format: functional, cell-based
Nucleic Acid [1] = experiment: Binding affinity to DNA; format: nucleic-acid assay
Nucleic Acid [2] = experiment: Displacement of ethidium bromide from DNA by titration
[3] = Homo sapiens, HL-60, read-out: IC50

SMILES | log K (Nucleic Acid [1]) | C50 (Nucleic Acid [2]) [µM] | IC50 (HL-60; hl-60) | IC50 (HL-60; [3]) [µM]
CN1CCN(C(=O)c2cccc3c(NCCn4nnc5ccccc54)c4ccccc4nc23)CC1 | 5.65 | 93.2 | Not Active | –
CN(C)CCNC(=O)c1ccc2c(NCCn3nnc4ccccc43)c3ccccc3nc2c1 | 6.54 | 12.1 | – | 262
CN(C)CCNC(=O)c1cccc2c(NCCn3nnc4ccccc43)c3ccccc3nc12 | 6.14 | 30 | – | 23.4
CN(C)CCNC(=O)c1ccc2c(NCCN=[N+]=[N-])c3ccccc3nc2c1 | 6.37 | 17.6 | – | 5.4
CN1CCN(C(=O)c2ccc3c(NCCn4nnc5ccccc54)c4ccccc4nc3c2)CC1 | 6.2 | 26.2 | Not Active | –

Now from value to compound, other results behind:

log K (Nucleic Acid [1]) | C50 (Nucleic Acid [2]) [µM] | SMILES | IC50 (HL-60; hl-60) | IC50 (HL-60; [3]) [µM]
– | > 200 | CN1CCN(C(=O)c2ccc3c(NCCN=[N+]=[N-])c4ccccc4nc3c2)CC1 | – | 45.7
6.49 | 13.6 | CN(C)CCNC(=O)c1cccc2c(NCCN=[N+]=[N-])c3ccccc3nc12 | – | 0.72
– | > 200 | CN1CCN(C(=O)c2cccc3c(NCCN=[N+]=[N-])c4ccccc4nc23)CC1 | – | 52
